Data from patent US5866511A, “Stabilized solutions of bromonitromethane and their use as biocides” (Great Lakes Chemical Corporation, priority 1997, dated 1999).
In brackets after ≈: the same amount, converted by molar mass. Like-named read-outs stand apart in the source and are kept apart here.

Columns and labels:
[1] = Storage stability of aqueous BNM concentrates (bromide ion concentration by ion selective electrodes over 57 days; gas chromatography); format: physicochemical
Description: Determination of enhanced formulation stability for solutions of bromonitromethane.
A study was performed to determine if aqueous concentrates of BNM could be prepared with adequate storage stability to make the material useful as a biocide. […] Less acidified solutions had faster degradation rates.
(§1) BNM (4.58 g, 91.4% assay) was dissolved in 100 mL of deionized water sample 1. A pH 2.37 solution was prepared by adding one drop of sulfuric acid to 100 mL DI water and then adding 4.60 g of the BNM sample 2. A pH 3.76 solution was prepared by adding one drop of 10% aq sodium hydrogen sulfate to 100 mL DI water and then adding 4.60 g of the BNM sample 3. A pH 7.91 solution was prepared by dissolving 4.60 g of the BNM in 100 mL of DI water. A total of 7.2 g of 16.4% NaOH was then added over six minutes to maintain the pH. That solution turned red, indicating the presence of the bromonitromethylate anion and was slowly becoming acidic before the initial bromide value was determined.
Each solution was measured for bromide ion concentration using ion selective electrodes over the course of 57 days to determine the degree of hydrolysis.
An acidified solution of bromonitromethane (BNM) is prepared by adding one drop of sulfuric acid to 100 ml distilled water and then adding 4.60 g of BNM (91.4% assay). The solution is sampled for gas chromatography assay at the beginning and end of these studies to confirm the BNM concentration. Aqueous solutions of BNM were stable when acidified with mineral acids to acidic pHs. The material hydrolyzed at a very slow rate giving a half-life of over ten years.
In a similar manner, acidified bromonitromethane solutions having pHs of about 1.0, 1.5, 2.0, 2.5, 3.0, 3.5 and 4.0 are prepared.

Chlorella = assay: Inhibition of algal growth in Allens medium (MIC), Chlorella; format: cell-based
Description: (§2) Pure cultures of the algal genera Anabeana, Chlamydomonas, and Chlorella are used to inoculate Allens medium at pH 7.5 achieving a final concentration of 10^4 cells/ml. All tests are performed on pure cultures. Various concentrations of acidified BNM solution (for each pH across the pH range of 1.5 to 3.5) are added to the culture tubes. Positive controls are established by the omission of BNM.
(§3) The algal cultures are housed in a light box (400 ft. candles; light source--cool white fluorescent tubes; 16 h on/8 h off cycles; 22°-26° C.) for three weeks. The cultures are read weekly noting any turbidity and green coloration of the medium which would indicate a positive result. […] The minimum inhibitory concentration was determined, with representative results being shown below.

Pseudomonas aeruginosa [2] = assay: Inhibition of microbial growth in alkaline paper pulp (MIC, at least 90% decrease); format: cell-based, Pseudomonas aeruginosa (ATCC 27853); settings: read-out: Minimum Inhibitory Concentration
Description: Microbial growth at various points in a paper making system could produce a slime layer which could drop onto the paper sheet causing product damage and machine downtime due to breaks. Biocides are added to keep the microbial growth in check throughout the system. A pulp slurry (1.25% dry basis) was prepared in sodium phosphate buffer (200 mM, pH 8). The slurry is sterilized by autoclaving at 121° C. for 20 min. Pseudomonas aeruginosa (ATCC 27853) is added to the sterile pulp slurries to achieve a final concentration of 10^6 cells/ml. This population is confirmed by serially diluting a sample in sterile phosphate buffer (0.3 mM) and plating onto tryptone glucose extract agar (TGEA; Difco, Detroit, Mich.). Bromonitromethane is added at various concentrations to the test cultures. Controls are established by omitting BNM from the test samples. Following a 3 and 24 hr. exposure period at ambient temperature, the resulting test suspensions are diluted and plated as previously described. All plates are enumerated following an incubation period of 24 hr. at 37° C. The minimum inhibitory concentration is defined as the lowest concentration which decreased the microbial population by at least 90% over the period tested.

Pseudomonas aeruginosa [3] = assay: Inhibition of bacterial growth in contaminated paint (MIC); format: cell-based; settings: for MIC: paint, 25° C., read-out: Minimum Inhibitory Concentration
Description: Water based paints are subject to microbial attack which could produce viscosity loss or offensive odors. Biocides are added to protect the paint from such degradation in the can. A paint sample was artificially contaminated with Pseudomonas aeruginosa, a bacterium which is frequently found in spoiled paint. […] The thermal treatment inactivates residual biocide present in the paint.
Acidified solutions of BNM (pH ranging from 1.5 to 3.5) are diluted with sterile water and added at various concentrations to the paint. Positive controls are established by the omission of BNM addition.
A sterile swab was dipped into the paint and samples are plated onto tryptone glucose extract agar (TGEA; Difco, Detroit, Mich.). Samples of contaminated paint are subsequently swabbed onto sterile TGEA after 1,2,3,7, and 14 days of incubation of 25° C. The plates are incubated for one week at 25° C. Any growth observed on the agar surface during the incubation period is noted. […] The minimum inhibitory concentration (MIC), defined as the lowest concentration of BNM which prevented bacterial growth in the paint, is determined for the inventive solutions.

[4] = CO2 off-gassing during storage of solutions; format: physicochemical; settings: stabilized (acidified) solutions, storage under standard conditions
Description: as §1
The solutions of the present invention provide the additional benefit of minimizing off-gassing of CO2 during storage of the solution.

[5] = test system: Desulfovibrio desulfuricans; assay: Inhibition of sulfate reducing bacterium in API broth (MIC); format: cell-based; settings: for MIC: read-out: Minimum Inhibitory Concentration
Description: API broth (Difco, Detroit, Mich.) is inoculated with the sulfate reducing bacterium (SRB) Desulfovibrio desulfuricans (10^4 cells/ml). Stable, acidified solutions of bromonitromethane (pH ranging from 1.5 to 3.6) are added to provide bromonitromethane at various concentrations to the SRB cultures. A positive control is constructed in the same fashion […] BNM addition.
The cultures are housed in a GasPak® jar (Becton Dickinson Microbiology Systems, Cockeysville, Md.) under anaerobic conditions (4-10% CO2, <1% O2) at ambient temperature. Cultures are checked weekly for a period of three weeks for visible […] growth indicative of SRB's. […] The minimum inhibitory concentration (MIC), defined as the lowest concentration of BNM which prevented bacterial growth in the API broth tubes, is determined.

Aspergillus niger = assay: Inhibition of fungal growth in synthetic cooling water (MIC); format: cell-based, Aspergillus niger (ATCC 9642); settings: for MIC: 168 h, read-out: Minimum Inhibitory Concentration
Description: Industrial water presents a favorable environment for fungal growth. Fungi can cause many problems in industrial systems including damage to cooling tower wood fill and decks by delignification. Synthetic water is prepared according to the following formula: 0.2 mM MgSO4, 1.2 mM CaCl2 and 1.0 mM NaHCO3. Cooling water presents a favorable environment for microbiological growth. Fungi can damage the cooling tower wood fill and decks by delignification. Synthetic cooling water (CW) is prepared according to the following formula: 0.2 mM MgSO4, 1.2 mM CaCl2, and 1.0 mM NaHCO. The pH is adjusted to either 6 or 8 with either H2 SO4 or NaOH. The resulting solution is then sterilized by passing through a 0.2 μm filter. Various concentrations of acidified BNM solution (pH ranging from 1.5 to 4.0) are added to aliquots of sterile synthetic water. A positive control is prepared by omitting the BNM.
Three day old cultures of Aspergillus niger (ATCC 9642) are harvested from the surface of potato dextrose agar (Difco, Detroit, Mich.) supplemented with tartaric acid. The samples are dosed with A. niger to achieve a concentration of 10^3 CFU/ml. These samples are incubated for one week at ambient temperature. The cultures are plated onto PDA in order to recover any surviving mold. These plates are incubated for three days at ambient temperature. […] The minimum inhibitory concentration (MIC), defined as the lowest concentration of BNM which prevented fungal growth on the PDA plates, is determined.

Anabeana = assay: Inhibition of algal growth in Allens medium (MIC), Anabeana; format: cell-based
Description: as §2, §3

all the organisms = settings: quoted from Clark et al.; attributed to volatility; cited from earlier work
Chlamydomonas = assay: Inhibition of algal growth in Allens medium (MIC), Chlamydomonas; format: cell-based
Description: as §2, §3

Pseudomonas aeruginosa [6] = assay: Inhibition of aerobic bacteria in borate buffer (MIC, at least 90% decrease); format: cell-based, Pseudomonas aeruginosa (ATCC 278853)
Description: Borate buffer (25 mM) is adjusted to either pH 7 or 8. The buffer was sterilized by passing through a 0.2 μm filter. Pseudomonas aeruginosa (ATCC 278853) is added to aliquots of the sterile buffer to achieve a final concentration of 10^6 cells/ml. This population is confirmed by serially diluting a sample in sterile phosphate buffer (0.3 mM) and plating onto tryptone glucose extract agar (TGEA; Difco, Detroit, Mich.). Acidified solutions of bromonitromethane are added at various concentrations to the test cultures. Solutions acidified with acids to pHs of between 1.5 and 3.5 are prepared and tested. Positive controls are established by omitting BNM from the test samples.
Following 3 and 24 hour exposure periods at ambient temperature, the resulting test suspensions are diluted and plated as previously described. All plates are enumerated following an incubation period of 24 hr. at 37° C. The minimum inhibitory concentration is defined as the lowest concentration which decreased the microbial population by at least 90% over the period tested.

[7] = 504 h, Allens medium pH 7.5, three weeks, read-out: Minimum Inhibitory Concentration

In the case of O=[N+]([O-])CBr [Bromonitromethane, bromonitromethane], the “optimum pH for stability” value ([1]; acidified with strong acids) is reported as “about 2.3”, the degradation rate ([1]; most stable solution, acidified with H2SO4 to pH 2.3, 72000 min) is reported as 0.4 % BNM per 50 days and the “hydrolysis (in words)” value ([1]; non-acidified solutions) is reported as “hydrolyze rapidly”. For the same compound, the MIC (Chlorella; [7]) was 0.5 to 1 µg/mL (≈ 3.57 to 7.15 µM), the “growth inhibition (in words)” value (Chlorella; acidified BNM solutions) was “effective for inhibiting the growth” and the MIC (Pseudomonas aeruginosa [2]; pulp slurry pH 8, 3 hr exposure) was 1 to 5 µg/mL (≈ 7.15 to 35.7 µM). For the same compound, the MIC (Pseudomonas aeruginosa [2]; pulp slurry pH 8, 24 hr exposure) was < 1 µg/mL, the MIC (Pseudomonas aeruginosa [3]; 24 h, 1 day incubation) was 2 to 5 µg/mL (≈ 14.3 to 35.7 µM) and the MIC (Pseudomonas aeruginosa [3]; 48 h, 2 days incubation) was 2 to 5 µg/mL (≈ 14.3 to 35.7 µM). The MIC (Pseudomonas aeruginosa [3]; 72 h, 3 days incubation) was 2 to 5 µg/mL (≈ 14.3 to 35.7 µM), the MIC (Pseudomonas aeruginosa [3]; 168 h, 7 days incubation) was 2 to 5 µg/mL (≈ 14.3 to 35.7 µM) and the MIC (Pseudomonas aeruginosa [3]; 336 h, 14 days incubation) was 2 to 5 µg/mL (≈ 14.3 to 35.7 µM). For the same compound, the “growth inhibition (in words)” value (Pseudomonas aeruginosa [3]; acidified BNM solutions) was “effective for inhibiting the growth”, the “CO2 off-gassing vs non-stabilized solutions” value [4] was “substantially reduce off-gassing (CO2)” and the MIC ([5]; 168 h) was < 0.1 µg/mL. The MIC ([5]; 336 h, API broth, anaerobic, pH = 2.37, 2 weeks) was 0.1 to 0.5 µg/mL (≈ 0.715 to 3.57 µM), the MIC ([5]; 504 h, API broth, anaerobic, pH = 2.37, 3 weeks) was 0.1 to 0.5 µg/mL (≈ 0.715 to 3.57 µM) and the “growth inhibition (in words)” value ([5]; acidified BNM solutions) was “effective for inhibiting the growth”. For the same compound, the MIC (Aspergillus niger; synthetic cooling water pH 6, one week) was < 1 µg/mL, the MIC (Aspergillus niger; synthetic cooling water pH 8, one week) was 1 to 5 µg/mL (≈ 7.15 to 35.7 µM) and the “growth inhibition (in words)” value (Aspergillus niger; acidified BNM solutions) was “effective for inhibiting the growth”. The MIC (Anabeana; [7]) was 0.5 to 1 µg/mL (≈ 3.57 to 7.15 µM), the “growth inhibition (in words)” value (Anabeana; acidified BNM solutions, Anabeana) was “effective for inhibiting the growth” and the “inhibition of organisms (in words)” value (all the organisms) was “inhibited all the organisms . . . but gave inconsistent results”. For the same compound, the MIC (Chlamydomonas; [7]) was 0.1 to 0.5 µg/mL (≈ 0.715 to 3.57 µM), the “growth inhibition (in words)” value (Chlamydomonas; acidified BNM solutions) was “effective for inhibiting the growth” and the MIC (Pseudomonas aeruginosa [6]; 3 h, pH 7, read-out: Minimum Inhibitory Concentration) was 0.6 to 3.2 µg/mL (≈ 4.29 to 22.9 µM). For the same compound, the MIC (Pseudomonas aeruginosa [6]; borate buffer pH 7, 24 hour exposure, ≥90% decrease, read-out: Minimum Inhibitory Concentration) was 0.3 to 0.6 µg/mL (≈ 2.14 to 4.29 µM), the MIC (Pseudomonas aeruginosa [6]; borate buffer pH 8, 3 hour exposure, ≥90% decrease, read-out: Minimum Inhibitory Concentration) was 0.6 to 3.2 µg/mL (≈ 4.29 to 22.9 µM) and the MIC (Pseudomonas aeruginosa [6]; borate buffer pH 8, 24 hour exposure, ≥90% decrease, read-out: Minimum Inhibitory Concentration) was 0.3 to 0.6 µg/mL (≈ 2.14 to 4.29 µM).
